{
  "source": "patent US20190111137A1",
  "about": "“METHODS FOR ANTAGONISTS OF A NON-SELECTIVE CATION CHANNEL IN NEURAL CELLS” (University of Maryland, Baltimore, priority 2007, published 2019)",
  "key": {"[1]": {"target": "T1, NCCa-ATP channel (Rattus norvegicus, UniProt Q09429+Q9ESQ5)", "T1 construct": "endogenous in cells; host or cells: freshly isolated native reactive astrocytes from the hypoxic gliotic capsule", "T1 sequence (Q09429 whole entry)": "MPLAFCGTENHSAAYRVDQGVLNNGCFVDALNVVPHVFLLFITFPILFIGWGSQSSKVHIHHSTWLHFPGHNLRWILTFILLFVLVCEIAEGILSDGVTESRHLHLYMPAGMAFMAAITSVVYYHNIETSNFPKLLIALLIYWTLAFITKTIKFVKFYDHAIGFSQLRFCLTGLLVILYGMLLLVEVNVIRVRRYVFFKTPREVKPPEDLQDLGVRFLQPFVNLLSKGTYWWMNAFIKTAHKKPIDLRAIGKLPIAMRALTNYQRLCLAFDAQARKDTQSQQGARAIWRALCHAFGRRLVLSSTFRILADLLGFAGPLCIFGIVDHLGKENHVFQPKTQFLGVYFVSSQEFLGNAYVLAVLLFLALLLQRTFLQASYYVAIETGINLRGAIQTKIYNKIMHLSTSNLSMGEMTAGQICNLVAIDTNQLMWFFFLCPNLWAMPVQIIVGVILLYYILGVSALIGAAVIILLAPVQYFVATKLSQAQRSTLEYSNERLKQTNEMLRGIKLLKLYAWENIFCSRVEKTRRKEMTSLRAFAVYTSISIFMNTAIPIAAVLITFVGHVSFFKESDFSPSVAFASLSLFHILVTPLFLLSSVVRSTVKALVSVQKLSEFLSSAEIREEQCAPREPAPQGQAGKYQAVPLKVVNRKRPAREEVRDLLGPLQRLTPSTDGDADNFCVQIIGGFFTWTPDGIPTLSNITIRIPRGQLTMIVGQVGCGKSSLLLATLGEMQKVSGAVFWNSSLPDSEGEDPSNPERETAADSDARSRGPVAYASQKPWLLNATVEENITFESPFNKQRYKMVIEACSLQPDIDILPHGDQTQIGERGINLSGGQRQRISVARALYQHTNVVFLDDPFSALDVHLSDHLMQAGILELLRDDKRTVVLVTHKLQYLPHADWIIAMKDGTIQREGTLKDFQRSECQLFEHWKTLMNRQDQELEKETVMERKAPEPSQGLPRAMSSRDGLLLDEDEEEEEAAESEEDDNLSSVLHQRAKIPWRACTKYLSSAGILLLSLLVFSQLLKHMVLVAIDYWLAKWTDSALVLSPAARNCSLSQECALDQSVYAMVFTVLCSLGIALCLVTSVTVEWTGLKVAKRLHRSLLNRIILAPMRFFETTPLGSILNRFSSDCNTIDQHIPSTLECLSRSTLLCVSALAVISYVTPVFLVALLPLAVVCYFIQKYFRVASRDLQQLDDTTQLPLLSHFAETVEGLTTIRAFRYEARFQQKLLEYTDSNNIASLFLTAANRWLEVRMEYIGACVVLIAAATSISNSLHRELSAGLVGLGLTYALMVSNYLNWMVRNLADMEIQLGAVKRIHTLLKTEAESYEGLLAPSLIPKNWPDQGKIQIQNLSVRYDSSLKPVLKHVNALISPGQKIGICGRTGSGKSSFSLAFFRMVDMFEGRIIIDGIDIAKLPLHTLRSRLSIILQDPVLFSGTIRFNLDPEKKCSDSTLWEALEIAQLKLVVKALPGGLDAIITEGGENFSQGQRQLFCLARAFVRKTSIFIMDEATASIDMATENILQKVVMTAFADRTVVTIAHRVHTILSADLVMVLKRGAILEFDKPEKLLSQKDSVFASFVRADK", "T1 sequence (Q9ESQ5 whole entry)": "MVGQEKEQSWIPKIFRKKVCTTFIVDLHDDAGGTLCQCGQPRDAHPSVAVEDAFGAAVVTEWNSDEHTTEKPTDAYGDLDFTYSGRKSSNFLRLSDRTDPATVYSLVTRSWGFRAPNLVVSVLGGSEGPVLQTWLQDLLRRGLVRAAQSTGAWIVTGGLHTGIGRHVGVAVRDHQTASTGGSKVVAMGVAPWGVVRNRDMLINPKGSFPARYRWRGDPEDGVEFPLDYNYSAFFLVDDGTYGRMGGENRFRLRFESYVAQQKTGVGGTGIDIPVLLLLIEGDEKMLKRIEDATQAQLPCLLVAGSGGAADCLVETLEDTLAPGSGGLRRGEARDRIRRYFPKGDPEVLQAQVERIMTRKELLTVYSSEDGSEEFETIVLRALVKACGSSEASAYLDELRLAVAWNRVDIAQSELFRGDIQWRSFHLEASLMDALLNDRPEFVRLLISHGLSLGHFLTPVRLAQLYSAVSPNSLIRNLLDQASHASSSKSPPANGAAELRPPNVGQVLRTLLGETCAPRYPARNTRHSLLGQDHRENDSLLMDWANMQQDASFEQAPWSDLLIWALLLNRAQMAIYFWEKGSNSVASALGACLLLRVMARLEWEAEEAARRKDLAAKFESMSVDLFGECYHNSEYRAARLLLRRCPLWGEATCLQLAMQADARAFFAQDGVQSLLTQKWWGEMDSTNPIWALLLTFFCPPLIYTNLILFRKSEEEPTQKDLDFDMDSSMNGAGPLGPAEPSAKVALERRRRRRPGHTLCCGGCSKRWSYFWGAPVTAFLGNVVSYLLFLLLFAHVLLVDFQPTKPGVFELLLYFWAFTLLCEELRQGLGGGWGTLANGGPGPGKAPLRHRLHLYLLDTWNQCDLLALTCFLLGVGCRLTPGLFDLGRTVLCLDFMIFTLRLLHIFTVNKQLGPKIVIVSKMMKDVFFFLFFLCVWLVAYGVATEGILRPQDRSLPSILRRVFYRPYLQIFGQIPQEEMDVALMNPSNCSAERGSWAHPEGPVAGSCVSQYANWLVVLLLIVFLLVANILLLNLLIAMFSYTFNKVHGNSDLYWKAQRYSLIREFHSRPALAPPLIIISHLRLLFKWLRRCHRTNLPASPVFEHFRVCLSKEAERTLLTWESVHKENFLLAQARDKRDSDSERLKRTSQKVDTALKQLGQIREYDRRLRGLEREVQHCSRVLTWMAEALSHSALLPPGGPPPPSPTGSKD", "experiment": "Patch clamp of NCCa-ATP channel in freshly isolated native reactive astrocytes", "type": "cell-based", "conditions": "for EC50: read-out: [ATP]1 EC50", "description": "(§1) PATCH CLAMP. […] In general, recordings are carried out using a Cs^+ rich solution, to preclude recording activity from any K^+ channel including KATP channel."}, "[2]": {"target": "T1, NCCa-ATP channel", "conditions": "cited from earlier work; for channel opening in the presence of ATP: K+ channel openers"}, "[3]": {"test_system": "TRPM4 channel", "conditions": "cited from earlier work"}, "[4]": {"test_system": "rat model of contusion SCI", "conditions": "as reported (Simard et al., 2007); cited from earlier work"}, "[5]": {"test_system": "reactive astrocytes", "conditions": "without ATP depletion; cited from earlier work"}, "[6]": {"test_system": "isolated retina of chick embryo", "conditions": "cited from earlier work"}, "[7]": {"target": "T2, NCCa-ATP channel (Mus musculus, UniProt B2RUS7+Q7TN37)", "T2 construct": "exposure to TNFα causes expression of a new channel that is not present before exposure to TNFα; host or cells: bEnd.3 cells exposed to TNFα", "experiment": "Patch clamp of bEnd.3 cells exposed to TNFα, ATP depleted with Na azide plus 2-DG", "type": "cell-based, murine", "conditions": "TNFα-treated bEnd.3 cells; Cs+ as the only permeant cation", "description": "(iii) Pharmacological block of SUR1 and TRPM4/patch clamp.\nPatch clamp was performed using a nystatin-perforated patch technique to maintain the metabolic integrity of the cells.\nSingle channel recordings were performed using inside-out patches, with Cs^+ as the only permeant cation.\nApart from direct application of PIP2 (FIG. 24A), PIP2 levels can be augmented by inhibiting spontaneously active PLC.\nas §1"}, "[8]": {"test_system": "rat model of contusion SCI", "experiment": "Rat model of unilateral cervical spinal cord injury (SCI)", "type": "in vivo"}, "[9]": {"test_system": "global cerebral ischemia in gerbils", "conditions": "in vivo; cited from earlier work"}, "[10]": {"test_system": "permanent middle cerebral artery occlusion (MCAO) model", "conditions": "cited from earlier work"}, "[11]": {"test_system": "temporary MCAO model", "conditions": "cited from earlier work"}, "[12]": {"conditions": "Membrane Preparation derived from freshly isolated native reactive astrocytes"}, "[13]": {"conditions": "after 6 h of vascular occlusion"}},
  "note": "Entries after “also recorded” stand apart in the source; their conditions may differ. Like-named read-outs stand apart in the source and are kept apart here.",
  "data": [
    {"compound": "[Ca+2]", "note": "[Ca^2+]", "values": [
      {"measurement": "Activation [Ca^2+]", "setting": "[1]; [12]", "value": "<1.0", "unit": "µM"},
      {"measurement": "Activation [Ca^2+]", "setting": "[1]; Reactive Astrocytes", "value": "<1.0", "unit": "µM"},
      {"measurement": "EC50", "setting": "[2]; SUR1-regulated NCCa-ATP, read-out: Ca^2+ activation (EC50)", "value": "120 to 1500", "unit": "nM"},
      {"measurement": "EC50", "setting": "[3]; read-out: Ca^2+ activation (EC50)", "value": 1300, "unit": "nM"}
    ]},
    {"compound": "CCOc1cc(CC(=O)N[C@@H](CC(C)C)c2ccccc2N2CCCCC2)ccc1C(=O)O", "note": "[repaglinide]", "values": [
      {"measurement": "neurological function", "setting": "[4]", "value": "improves neurological function"},
      {"measurement": "progressive hemorrhagic necrosis", "setting": "[4]", "value": "reduces progressive hemorrhagic necrosis"}
    ]},
    {"compound": "CCCCNC(=O)NS(=O)(=O)c1ccc(C)cc1", "note": "[tolbutamide]", "values": [
      {"measurement": "EC50", "setting": "[2]; pH 7.4, read-out: block of NCCa-ATP channel opening (EC50)", "value": 16100, "unit": "nM"}
    ]},
    {"compound": "CC1=NS(=O)(=O)c2cc(Cl)ccc2N1", "note": "[diazoxide]", "values": [
      {"measurement": "channel opening in the presence of ATP", "setting": "[2]", "value": "increased"},
      {"measurement": "bleb formation", "setting": "[5]", "value": "reproduced"}
    ]},
    {"compound": "PIP2", "values": [
      {"measurement": "PIP2 activation", "setting": "[1]; SUR1-regulated NCCa-ATP, unpublished observations", "value": "yes*"},
      {"measurement": "channel activity after addition of PIP2", "setting": "[1]; inside-out patch, high concentration of ATP (10 mM) on the cytoplasmic side", "value": "robust channel activation; also recorded: release of inhibition"},
      {"measurement": "PIP2 activation", "setting": "[3]", "value": "yes"}
    ]},
    {"compound": "Cc1ccc(Cl)c(Nc2ccccc2C(=O)O)c1Cl", "note": "[meclofenamic acid]", "values": [
      {"measurement": "protection of the retina against ischemic or excitotoxic insult", "setting": "[6]", "value": "protected"}
    ]},
    {"compound": "Nc1ncnc2c1ncn2[C@@H]1O[C@H](COP(=O)(O)OP(=O)(O)OP(=O)(O)O)[C@@H](O)[C@H]1O", "note": "[ATP]", "values": [
      {"measurement": "EC50", "setting": "[1]; [12]", "value": 790, "unit": "nM"},
      {"measurement": "EC50", "setting": "[1]; Reactive Astrocytes", "value": 790, "unit": "nM"},
      {"measurement": "EC50", "setting": "[2]; SUR1-regulated NCCa-ATP, read-out: ATP block (EC50)", "value": 800, "unit": "nM"},
      {"measurement": "EC50", "setting": "[2]; read-out: Channel opening blocked by ATP (EC50)", "value": 790, "unit": "nM"},
      {"measurement": "EC50", "setting": "[3]; read-out: ATP block (EC50)", "value": "130 to 1700", "unit": "nM"},
      {"measurement": "block of single channel activity (inside-out patch)", "setting": "[7]", "value": "reversibly blocked"}
    ]},
    {"compound": "S=C(S)N1CCCC1", "note": "[PDTC, pyrrolidine dithiocarbamate]", "values": [
      {"measurement": "TRPM4 expression in cord (immunolabeling)", "setting": "[8]; 24 h post-SCI", "value": "significantly decreased; also recorded: reduces TRPM4 expression"},
      {"measurement": "neurobehavioral function (inclined plane, rearing)", "setting": "[8]; post-SCI", "value": "improved functional outcome"}
    ]},
    {"compound": "Oc1cc2c(cc1O)CN(C(=S)NCCc1ccc(Cl)cc1)CCC2", "note": "[capsazepine]", "values": [
      {"measurement": "effect on rimonabant-induced and capsaicin-induced neuroprotective effects", "setting": "[9]", "value": "reversed"}
    ]},
    {"compound": "COc1cc2c(cc1OC)C(C(C(=O)N(CCc1ccc(OC)c(OC)c1OC)CCc1ccc(OC)c(OC)c1OC)c1ccccc1)=NCC2", "note": "(racemic) [pinokalant, (R,S)-(3,4-dihydro-6,7-dimethoxy-isoquinoline-1-yl)-2-phenyl-N,N-di[2-(2,3,4-trimethoxyphenyl)ethyl]-acetamide]", "values": [
      {"measurement": "blood flow", "setting": "[10]; [13]", "value": "significantly higher"},
      {"measurement": "volume of ATP-depleted and morphologically injured tissue (infarct core), smaller", "setting": "[10]; [13]", "value": "60-70%"},
      {"measurement": "decrease of ADC lesion volume", "setting": "[10]; during the initial 6 h of vascular occlusion", "value": "approximately 20%"},
      {"measurement": "size of ischemic penumbra", "setting": "[10]; volume of severely acidic tissue", "value": "does not reduce"},
      {"measurement": "DWI-derived infarct volume", "setting": "[11]; 4 h after MCAO", "value": "significantly smaller"},
      {"measurement": "neurological scores", "setting": "[11]; 24 h", "value": "significantly better"},
      {"measurement": "TTC-derived infarct volume", "setting": "[11]; postmortem", "value": "significantly attenuated"},
      {"measurement": "size of the ischemic core", "setting": "[11]; rat, in vivo", "value": "significantly smaller"}
    ]},
    {"compound": "CC1(C)Oc2ccc(C#N)cc2C(N2CCCC2=O)C1O", "note": "(centres unmarked) [cromakalin]", "values": [
      {"measurement": "channel opening in the presence of ATP", "setting": "[2]", "value": "not"}
    ]},
    {"compound": "Nc1ncnc2c1ncn2[C@@H]1O[C@H](COP(=O)(O)O)[C@@H](O)[C@H]1O", "note": "[AMP]", "values": [
      {"measurement": "ADP AMP channel effect", "setting": "[1]; [12]", "value": "No channel"},
      {"measurement": "ADP AMP channel effect", "setting": "[1]; Reactive Astrocytes", "value": "No channel"},
      {"measurement": "ADP, AMP block", "setting": "[2]; SUR1-regulated NCCa-ATP", "value": "no"},
      {"measurement": "effect of ADP or AMP on channel opening", "setting": "[2]", "value": "unaffected"},
      {"measurement": "ADP, AMP block", "setting": "[3]", "value": "yes"}
    ]},
    {"compound": "CC(N/C(=N\\C#N)Nc1ccncc1)C(C)(C)C", "note": "(centres unmarked) [pinacidil]", "values": [
      {"measurement": "channel opening in the presence of ATP", "setting": "[2]", "value": "not"}
    ]},
    {"compound": "COc1cc(CNC(=O)CCCC/C=C/C(C)C)ccc1O", "note": "[capsaicin]", "values": [
      {"measurement": "electroencephalographic changes, hyperlocomotion and memory impairment induced by global ischemia", "setting": "[9]", "value": "antagonize"},
      {"measurement": "survival of pyramidal cells in the CA1 subfield of the hippocampus", "setting": "[9]", "value": "progressive survival"}
    ]},
    {"compound": "Nc1ncnc2c1ncn2[C@@H]1O[C@H](COP(=O)(O)OP(=O)(O)O)[C@@H](O)[C@H]1O", "note": "[ADP]", "values": [
      {"measurement": "ADP AMP channel effect", "setting": "[1]; [12]", "value": "No channel"},
      {"measurement": "ADP AMP channel effect", "setting": "[1]; Reactive Astrocytes", "value": "No channel"},
      {"measurement": "ADP, AMP block", "setting": "[2]; SUR1-regulated NCCa-ATP", "value": "no"},
      {"measurement": "effect of ADP or AMP on channel opening", "setting": "[2]", "value": "unaffected"},
      {"measurement": "ADP, AMP block", "setting": "[3]", "value": "yes"}
    ]}
  ]
}
